# Test results as given in patent publication US20260159536A1, “AKR1C3-ACTIVATED DNA ALKYLATING AGENT, AND MEDICAL APPLICATION THEREOF” (ASCENTAWITS PHARMACEUTICALS, LTD., priority 2021, published 2026).
# Legend:
# [1] = test system: HuPrime model LU2505 human lung cancer; assay: In vivo pharmacodynamics, lung cancer LU2505 PDX model; set-up: species or system BALB/c nude mice; conditions: for Tumor volume (x ± S): in mm³ (unit assumed)
# [2] = test system: HuPrime model LI6643 human liver cancer; assay: In vivo pharmacodynamics, liver cancer LI6643 PDX model (Compound A, Sorafenib; section 4.8); set-up: species or system BALB/c nude mice
# Experimental: Experiment Instruction: BALB/c nude mice were subcutaneously inoculated with HuPrime® model LI6643 tumor blocks to establish a subcutaneous transplantation tumor model of human liver cancer. […] The efficacy was evaluated according to the relative tumor inhibition rate TGI (%), and the safety was evaluated according to the change in body weight and the death of the animals.
# [3] = Chiral stability under long-term and accelerated storage conditions; assay type: physicochemical
# Experimental: Isomer stability under long-term and accelerated conditions was studied.
# Compound A and isomers A-P1 and A-P2 were investigated for traits and isomeric stability at −20±5° C., 5° C.±3° C., 25° C.±2° C. (60%±5% RH) and 40° C.±2° C.
# [4] = 1.25 mg/kg, QDx5, 2 days off, 2 weeks off, QDx5, i.p., Day 35
# [5] = 2.5 mg/kg, QDx5, 2 days off, 2 weeks off, QDx5, i.p., Day 35
# [6] = 5 mg/kg, QDx5, 2 days off, 2 weeks off, QDx5, i.p., Day 35
# [7] = 10 mg/kg, QWx2, 1 week off, QWx2, i.v., Day 35
# [8] = 25° C. ± 2° C./60% ± 5% RH, 6 months
# [9] = 40° C. ± 2° C./75% ± 5% RH, 6 months
smiles,measurement,setting,value
O=[N+]([O-])c1ccc(C(OP(=O)(N2CC2)N2CC2)C(F)(F)F)cc1Oc1ccc(-c2ccc(F)cc2)c(F)c1 (racemic) [Compound A],Relative tumor volume (x ± S),"[1]; 1.25 mg/kg i.v. QWx3, Day 28",4.61 ± 1.57
same,T/C (%),"[1]; 1.25 mg/kg i.v. QWx3, Day 28",43.14%
same,TGI (%),"[1]; 1.25 mg/kg i.v. QWx3, Day 28",56.86%
same,Tumor volume (x ± S),"[1]; 1.25 mg/kg i.v. QWx3, Day 28",485.95 ± 175.25
same,Tumor volume,"[1]; 1.25 mg/kg i.v., Day 0",103.28 mm^3
same,Tumor volume,"[1]; 1.25 mg/kg i.v., Day 4",156.32 mm^3
same,Tumor volume,"[1]; 1.25 mg/kg i.v., Day 7",231.55 mm^3
same,Tumor volume,"[1]; 1.25 mg/kg i.v., Day 11",242.12 mm^3
same,Tumor volume,"[1]; 1.25 mg/kg i.v., Day 14",291.72 mm^3
same,Tumor volume,"[1]; 1.25 mg/kg i.v., Day 18",383.24 mm^3
same,Tumor volume,"[1]; 1.25 mg/kg i.v., Day 21",434.92 mm^3
same,Tumor volume,"[1]; 1.25 mg/kg i.v., Day 25",478.15 mm^3
same,Tumor volume,"[1]; 1.25 mg/kg i.v., Day 28",485.95 mm^3
same,Relative tumor volume (x ± S),"[1]; 2.5 mg/kg i.v. QWx3, Day 28",1.11 ± 0.56
same,T/C (%),"[1]; 2.5 mg/kg i.v. QWx3, Day 28",10.43%
same,TGI (%),"[1]; 2.5 mg/kg i.v. QWx3, Day 28",89.57%
same,Tumor volume (x ± S),"[1]; 2.5 mg/kg i.v. QWx3, Day 28",102.06 ± 47.51
same,Tumor volume,"[1]; 2.5 mg/kg i.v., Day 0",103.26 mm^3
same,Tumor volume,"[1]; 2.5 mg/kg i.v., Day 4",149.02 mm^3
same,Tumor volume,"[1]; 2.5 mg/kg i.v., Day 7",131.34 mm^3
same,Tumor volume,"[1]; 2.5 mg/kg i.v., Day 11",109.62 mm^3
same,Tumor volume,"[1]; 2.5 mg/kg i.v., Day 14",116.57 mm^3
same,Tumor volume,"[1]; 2.5 mg/kg i.v., Day 18",113.09 mm^3
same,Tumor volume,"[1]; 2.5 mg/kg i.v., Day 21",103.18 mm^3
same,Tumor volume,"[1]; 2.5 mg/kg i.v., Day 25",92.38 mm^3
same,Tumor volume,"[1]; 2.5 mg/kg i.v., Day 28",102.06 mm^3
same,Relative tumor volume (x ± S),"[1]; 5 mg/kg i.v. QWx3, Day 28",0.17 ± 0.07
same,T/C (%),"[1]; 5 mg/kg i.v. QWx3, Day 28",1.60%
same,TGI (%),"[1]; 5 mg/kg i.v. QWx3, Day 28",98.40%
same,Tumor volume (x ± S),"[1]; 5 mg/kg i.v. QWx3, Day 28",19.00 ± 8.08
same,Tumor volume,"[1]; 5 mg/kg i.v., Day 0",103.23 mm^3
same,Tumor volume,"[1]; 5 mg/kg i.v., Day 4",139.41 mm^3
same,Tumor volume,"[1]; 5 mg/kg i.v., Day 7",111.31 mm^3
same,Tumor volume,"[1]; 5 mg/kg i.v., Day 11",62.41 mm^3
same,Tumor volume,"[1]; 5 mg/kg i.v., Day 14",42.40 mm^3
same,Tumor volume,"[1]; 5 mg/kg i.v., Day 18",34.32 mm^3
same,Tumor volume,"[1]; 5 mg/kg i.v., Day 21",30.63 mm^3
same,Tumor volume,"[1]; 5 mg/kg i.v., Day 25",20.52 mm^3
same,Tumor volume,"[1]; 5 mg/kg i.v., Day 28",19.00 mm^3
same,toxic side effects (body weight change),"[1]; 1.25, 2.5, 5 mg/kg i.v. QWx3",without toxic side effects
same,Tumor volume,"[2]; 1.25 mg/kg i.p., Day 0",126.02 mm^3
same,Tumor volume,"[2]; 1.25 mg/kg i.p., Day 4",181.97 mm^3
same,Tumor volume,"[2]; 1.25 mg/kg i.p., Day 7",270.85 mm^3
same,Tumor volume,"[2]; 1.25 mg/kg i.p., Day 11",264.04 mm^3
same,Tumor volume,"[2]; 1.25 mg/kg i.p., Day 14",197.40 mm^3
same,Tumor volume,"[2]; 1.25 mg/kg i.p., Day 18",177.65 mm^3
same,Tumor volume,"[2]; 1.25 mg/kg i.p., Day 21",102.13 mm^3
same,Tumor volume,"[2]; 1.25 mg/kg i.p., Day 25",90.41 mm^3
same,Tumor volume,"[2]; 1.25 mg/kg i.p., Day 28",73.75 mm^3
same,Tumor volume,"[2]; 1.25 mg/kg i.p., Day 32",49.39 mm^3
same,Tumor volume,"[2]; 1.25 mg/kg i.p., Day 35",35.61 mm^3
same,Tumor volume,"[2]; 1.25 mg/kg i.p., Day 39",31.79 mm^3
same,Tumor volume,"[2]; 1.25 mg/kg i.p., Day 42",25.59 mm^3
same,Tumor volume,"[2]; 1.25 mg/kg i.p., Day 46",19.34 mm^3
same,Tumor volume,"[2]; 1.25 mg/kg i.p., Day 49",12.51 mm^3
same,Tumor volume,"[2]; 1.25 mg/kg i.p., Day 53",9.04 mm^3
same,Relative tumor volume (x ± S),[2]; [4],0.27 ± 0.14
same,T/C (%),[2]; [4],1.89%
same,TGI (%),[2]; [4],98.11%
same,Tumor volume (x ± S),[2]; [4],35.61 ± 18.63
same,Tumor volume,"[2]; 2.5 mg/kg i.p., Day 0",125.92 mm^3
same,Tumor volume,"[2]; 2.5 mg/kg i.p., Day 4",199.12 mm^3
same,Tumor volume,"[2]; 2.5 mg/kg i.p., Day 7",278.32 mm^3
same,Tumor volume,"[2]; 2.5 mg/kg i.p., Day 11",191.74 mm^3
same,Tumor volume,"[2]; 2.5 mg/kg i.p., Day 14",167.14 mm^3
same,Tumor volume,"[2]; 2.5 mg/kg i.p., Day 18",154.33 mm^3
same,Tumor volume,"[2]; 2.5 mg/kg i.p., Day 21",100.94 mm^3
same,Tumor volume,"[2]; 2.5 mg/kg i.p., Day 25",103.28 mm^3
same,Tumor volume,"[2]; 2.5 mg/kg i.p., Day 28",93.12 mm^3
same,Tumor volume,"[2]; 2.5 mg/kg i.p., Day 32",74.85 mm^3
same,Tumor volume,"[2]; 2.5 mg/kg i.p., Day 35",56.62 mm^3
same,Tumor volume,"[2]; 2.5 mg/kg i.p., Day 39",39.85 mm^3
same,Tumor volume,"[2]; 2.5 mg/kg i.p., Day 42",27.34 mm^3
same,Tumor volume,"[2]; 2.5 mg/kg i.p., Day 46",14.83 mm^3
same,Tumor volume,"[2]; 2.5 mg/kg i.p., Day 49",12.00 mm^3
same,Tumor volume,"[2]; 2.5 mg/kg i.p., Day 53",12.86 mm^3
same,Relative tumor volume (x ± S),[2]; [5],0.45 ± 0.07
same,T/C (%),[2]; [5],3.19%
same,TGI (%),[2]; [5],96.81%
same,Tumor volume (x ± S),[2]; [5],56.62 ± 9.62
same,Tumor volume,"[2]; 5 mg/kg i.p., Day 0",126.93 mm^3
same,Tumor volume,"[2]; 5 mg/kg i.p., Day 4",178.97 mm^3
same,Tumor volume,"[2]; 5 mg/kg i.p., Day 7",214.95 mm^3
same,Tumor volume,"[2]; 5 mg/kg i.p., Day 11",132.13 mm^3
same,Tumor volume,"[2]; 5 mg/kg i.p., Day 14",63.74 mm^3
same,Tumor volume,"[2]; 5 mg/kg i.p., Day 18",60.36 mm^3
same,Tumor volume,"[2]; 5 mg/kg i.p., Day 21",40.93 mm^3
same,Tumor volume,"[2]; 5 mg/kg i.p., Day 25",24.91 mm^3
same,Tumor volume,"[2]; 5 mg/kg i.p., Day 28",21.48 mm^3
same,Tumor volume,"[2]; 5 mg/kg i.p., Day 32",8.71 mm^3
same,Tumor volume,"[2]; 5 mg/kg i.p., Day 35",7.12 mm^3
same,Tumor volume,"[2]; 5 mg/kg i.p., Day 39",6.77 mm^3
same,Tumor volume,"[2]; 5 mg/kg i.p., Day 42",5.57 mm^3
same,Tumor volume,"[2]; 5 mg/kg i.p., Day 46",4.27 mm^3
same,Tumor volume,"[2]; 5 mg/kg i.p., Day 49",4.12 mm^3
same,Tumor volume,"[2]; 5 mg/kg i.p., Day 53",3.81 mm^3
same,Relative tumor volume (x ± S),[2]; [6],0.05 ± 0.05
same,T/C (%),[2]; [6],0.34%
same,TGI (%),[2]; [6],99.66%
same,Tumor volume (x ± S),[2]; [6],7.12 ± 7.12
same,Tumor volume,"[2]; 10 mg/kg i.v., Day 0",126.11 mm^3
same,Tumor volume,"[2]; 10 mg/kg i.v., Day 4",160.85 mm^3
same,Tumor volume,"[2]; 10 mg/kg i.v., Day 7",216.99 mm^3
same,Tumor volume,"[2]; 10 mg/kg i.v., Day 11",94.21 mm^3
same,Tumor volume,"[2]; 10 mg/kg i.v., Day 14",72.94 mm^3
same,Tumor volume,"[2]; 10 mg/kg i.v., Day 18",59.48 mm^3
same,Tumor volume,"[2]; 10 mg/kg i.v., Day 21",25.80 mm^3
same,Tumor volume,"[2]; 10 mg/kg i.v., Day 25",21.28 mm^3
same,Tumor volume,"[2]; 10 mg/kg i.v., Day 28",10.93 mm^3
same,Tumor volume,"[2]; 10 mg/kg i.v., Day 32",7.11 mm^3
same,Tumor volume,"[2]; 10 mg/kg i.v., Day 35",0.00 mm^3
same,Tumor volume,"[2]; 10 mg/kg i.v., Day 39",0.00 mm^3
same,Tumor volume,"[2]; 10 mg/kg i.v., Day 42",0.00 mm^3
same,Tumor volume,"[2]; 10 mg/kg i.v., Day 46",0.00 mm^3
same,Tumor volume,"[2]; 10 mg/kg i.v., Day 49",0.00 mm^3
same,Tumor volume,"[2]; 10 mg/kg i.v., Day 53",0.00 mm^3
same,Relative tumor volume (x ± S),[2]; [7],0 ± 0
same,T/C (%),[2]; [7],0.00%
same,TGI (%),[2]; [7],100.00%
same,Tumor volume (x ± S),[2]; [7],0 ± 0
same,toxic side effects (body weight change),"[2]; 1.25, 2.5, 5, 10 mg/kg",without toxic side effects
same,Isomer peak A-P1,[3]; 0 month,49.8%
same,Isomer peak A-P2,[3]; 0 month,50.2%
same,Isomer peak A-P1,"[3]; 5° C. ± 3° C., 6 months",49.9%
same,Isomer peak A-P2,"[3]; 5° C. ± 3° C., 6 months",50.1%
same,Isomer transformation,"[3]; 5° C. ± 3° C., 6 months",0.1%
same,properties and chirality after storage,"[3]; 5° C., 25° C./60% RH, 40° C./75% RH, 6 months",essentially unchanged
same,Isomer peak A-P1,[3]; [8],49.9%
same,Isomer peak A-P2,[3]; [8],50.1%
same,Isomer transformation,[3]; [8],0.1%
same,Isomer peak A-P1,[3]; [9],49.9%
same,Isomer peak A-P2,[3]; [9],50.1%
same,Isomer transformation,[3]; [9],0.1%
